Literature values as cited in patent US20230405009A1, “METHODS FOR TREATING HEMATOLOGIC MALIGNANCIES WITH AMINO-PYRROLOPYRIMIDINONE COMPOUNDS” (Merck Sharp & Dohme LLC, priority 2020, published 2023).

Assays:
CLL mouse models = details: Reiff et al. Cancer Discovery 2018
DLBCL mouse models = details: Reiff et al. Cancer Discovery 2018

For O=C(c1ccc(Oc2ccccc2)cc1Cl)c1c[nH]c2ncnc(N[C@@H]3CC[C@@H](CO)OC3)c12 [Compound A], the “efficacy compared with ibrutinib in CLL mouse models” value (CLL mouse models) is given as “superiority over ibrutinib” and the “efficacy compared with ibrutinib in DLBCL mouse models” value (DLBCL mouse models) is given as “superiority over ibrutinib”.
